Results as given in patent publication US20260285849A1, “METHYLOPHIOPOGONONE A DERIVATIVE, AND PREPARATION AND USE THEREOF” (INSTITUTE OF MATERIA MEDICA, CHINESE ACADEMY OF MEDICAL …, priority 2022, published 2026).

Columns and labels:
[1] = system: mice with isoproterenol (ISO)-induced ischemic heart disease; assay: ISO-induced ischemic heart disease mouse model: myocardial tissue pathology (H&E); type: in vivo; conditions: for The number of animals with lesion degree + / The number of animals with lesion degree ++ / The number of animals with lesion degree +++ / The number of animals with lesion degree ++++ / The number of animals with lesion degree +++++ / The number of animals with lesion degree − / average score of myocardial tissue lesion degree: H&E; for pathological damage of myocardial tissue (H&E staining): three doses (0.1, 0.5, 2 mg/kg) by gavage
Protocol: Male C57BL/6 mice were allowed to acclimate to the environment and then randomly divided into 9 groups, namely the blank control group, the ISO model group, the ISO+diltiazem 20 mg/kg positive control drug group, the ISO+Formula I (0.1, 0.5, 2 mg/kg) groups, and the ISO+Formula II (0.1, 0.5, 2 mg/kg) groups. Mice in the drug administration groups were intragastrically administered the corresponding doses of Formula I and Formula II compounds once a day at the same time. Mice in the positive drug diltiazem group were intragastrically administered the corresponding dose of diltiazem once a day. Mice in the blank control group and the model group were given the same amount of solvent (0.5% CMC-Na). The administration volume was 10 mL/kg, and the administration was continuous for 11 days.
From the 4th to the 10th day of drug administration, ISO modeling was carried out. The blank control group was subcutaneously injected with normal saline, and mice in the other groups were subcutaneously injected with ISO at a dose of 40 mg/kg (modeling was performed 2 hours after drug administration), for a total of 7 times.
Pathological detection of myocardial tissue: After the experiment ended, the heart was washed with ice-cold physiological saline and dried with absorbent paper. It was then cut transversely into two halves. One-third of the part closer to the apex of the heart was fixed in a 4% paraformaldehyde solution. After dehydration with gradient ethanol and clearing with xylene, it was immersed in melted paraffin three times for embedding, 30 minutes each time. After embedding, continuous sections (about 4 μm thick) were made. Routine hematoxylin and eosin (H.E.) staining was performed. The pathological state of the myocardial tissue was observed under an optical microscope, photographed, and analyzed.
• −: No abnormalities were observed. • +: No myocardial tissue damage was seen. There was local hypertrophy of cardiomyocytes in the interventricular septum and papillary muscles, local edema and degeneration of cardiomyocytes, widening of the local muscle space in the lesion area, and mild non-specific inflammation in the interstitium. • ++: No obvious myocardial tissue damage (cardiomyocyte necrosis) was observed. There was local hypertrophy of cardiomyocytes in the interventricular septum and papillary muscles, local edema and degeneration of cardiomyocytes. Myofibril dissolution (disappearance of cross-striations) could be seen in local areas. The lesions were relatively limited and distributed in small foci. Non-specific inflammation was visible in the interstitium, and local fibrous tissue hyperplasia in the interstitium was noted. • +++: There was obvious hypertrophy of cardiomyocytes in the interventricular septum and papillary muscles, local edema and degeneration of cardiomyocytes. […] The lesion was limited to the subendocardium of the local interventricular septum (or papillary muscle), with a limited and small affected area. Non-specific inflammation was visible in the interstitium of the lesion area, and local fibrous tissue hyperplasia in the interstitium was noted. • ++++: The hypertrophy of cardiomyocytes in the interventricular septum and papillary muscles is remarkable. Locally, there is edema and degeneration of cardiomyocytes; there is obvious damage (necrosis of cardiomyocytes) in the myocardial tissue of the local interventricular septum and papillary muscles. The lesions are distributed in foci (or small patches), and the affected area is relatively large. […] Locally, there is edema and degeneration of cardiomyocytes; the damage (necrosis of cardiomyocytes) of the myocardial tissue of the local interventricular septum and papillary muscles is severe. The damage (necrosis) lesions are distributed in patches and are connected to each other. Transmural myocardial tissue damage of the interventricular septum and papillary muscles can be seen locally.

Rat H9C2 cardiomyocytes = assay: cells; conditions: H9c2, 24 h, read-out: Cell survival rate
Protocol: Rat H9C2 cardiomyocytes in the logarithmic growth phase were seeded into 96-well plates at a density of 7×10^4 cells/mL, with 100 μL per well. […] After 24 hours of culture, the drug groups were treated with 800 μM ISO and the corresponding concentrations of drugs. The ISO model group received 800 μM ISO and an equal volume of DMSO, and the blank control group received an equal volume of DMSO. The cells were then cultured for another 24 hours. After removing the supernatant, 100 μL MTT solution (0.5 mg/mL) was added to each well and incubated in the cell culture incubator for 4 hours. After removing the supernatant, 150 μL DMSO was added to each well, mixed by shaking for 10 minutes, and the absorbance was measured at 570 nm using a microplate reader to calculate cell viability. Cell viability (%)=[(As−Ab)/(Ac−Ab)]×100%. As: Experimental well (medium with cells, MTT, ISO); Ac: Control well (medium with cells, MTT, without ISO); Ab: Blank well (medium without cells, MTT, without ISO).

| SMILES | The number of animals with lesion degree + ([1]; 0.1 mg/kg) | The number of animals with lesion degree ++ ([1]; 0.1 mg/kg) | The number of animals with lesion degree +++ ([1]; 0.1 mg/kg) | The number of animals with lesion degree ++++ ([1]; 0.1 mg/kg) | The number of animals with lesion degree +++++ ([1]; 0.1 mg/kg) | The number of animals with lesion degree − ([1]; 0.1 mg/kg) | average score of myocardial tissue lesion degree ([1]; 0.1 mg/kg) | The number of animals with lesion degree + ([1]; 0.5 mg/kg) | The number of animals with lesion degree ++ ([1]; 0.5 mg/kg) | The number of animals with lesion degree +++ ([1]; 0.5 mg/kg) | The number of animals with lesion degree ++++ ([1]; 0.5 mg/kg) | The number of animals with lesion degree +++++ ([1]; 0.5 mg/kg) | The number of animals with lesion degree − ([1]; 0.5 mg/kg) | average score of myocardial tissue lesion degree ([1]; 0.5 mg/kg) | The number of animals with lesion degree + ([1]; 2 mg/kg) | The number of animals with lesion degree ++ ([1]; 2 mg/kg) | The number of animals with lesion degree +++ ([1]; 2 mg/kg) | The number of animals with lesion degree ++++ ([1]; 2 mg/kg) | The number of animals with lesion degree +++++ ([1]; 2 mg/kg) | The number of animals with lesion degree − ([1]; 2 mg/kg) | other results |
| --- | --- | --- | --- | --- | --- | --- | --- | --- | --- | --- | --- | --- | --- | --- | --- | --- | --- | --- | --- | --- | --- |
| Cc1c(O)cc(O)c2c(=O)c(Cc3ccc4c(c3)OCO4)coc12 [Formula II, 3-(benzo[d][1,3]dioxol-5-ylmethyl)-5,7-dihydroxy-8-methyl-4H-chromen-4-one] | 2 | 4 | 4 | 0 | 0 | 0 | 2.20 ± 0.79 | 3 | 4 | 3 | 0 | 0 | 0 | 2.00 ± 0.82 | 6 | 1 | 0 | 0 | 0 | 4 | average score of myocardial tissue lesion degree ([1]; 2 mg/kg): 0.73 ± 0.65; pathological damage of myocardial tissue (H&E staining) [1]: significantly improve the pathological damage of myocardial tissue; viability at 0.1 µM (Rat H9C2 cardiomyocytes): 79.8%; viability at 0.3 µM (Rat H9C2 cardiomyocytes): 79.8%; viability at 1 µM (Rat H9C2 cardiomyocytes): 74.8%; viability at 3 µM (Rat H9C2 cardiomyocytes): 79.6%; viability at 5 µM (Rat H9C2 cardiomyocytes): 64.9%; viability at 10 µM (Rat H9C2 cardiomyocytes): 66.7% |
| O=c1c(Cc2ccc3c(c2)OCO3)coc2cc(O)cc(O)c12 [Formula I] | 0 | 2 | 5 | 2 | 0 | 0 | 3.00 ± 0.71 | 2 | 4 | 4 | 0 | 0 | 0 | 2.20 ± 0.79 | 6 | 3 | 0 | 0 | 0 | 1 | average score of myocardial tissue lesion degree ([1]; 2 mg/kg): 1.20 ± 0.63; pathological damage of myocardial tissue (H&E staining) [1]: significantly improve the pathological damage of myocardial tissue; viability at 0.1 µM (Rat H9C2 cardiomyocytes): 81.3%; viability at 0.3 µM (Rat H9C2 cardiomyocytes): 76.8%; viability at 1 µM (Rat H9C2 cardiomyocytes): 74%; viability at 3 µM (Rat H9C2 cardiomyocytes): 76.6%; viability at 5 µM (Rat H9C2 cardiomyocytes): 66.7%; viability at 10 µM (Rat H9C2 cardiomyocytes): 69.4% |
